Values quoted from earlier work, collected in patent publication US9006292B2, “Metadichol® liquid and gel nanoparticle formulations” (NanoRx, Inc., priority 2013, dated 2015).
Read-outs that look alike come from different tables or passages of the source.

Key:
[1] = topical, phase I trial of 14 patients
RDW = conditions: 6 months
Lp(a) = conditions: in vivo

## C=C1/C(=C\C=C2/CCC[C@]3(C)[C@@H]([C@H](C)CCCC(C)(C)O)CC[C@@H]23)C[C@@H](O)C[C@@H]1O [1,25-dihydroxycholecalciferol]
[1]
  prevention of chemotherapy-induced alopecia: failed to show efficacy
P. falciparum; low doses
  growth of P. falciparum in culture: inhibitory

## COCCc1ccc(OCC(O)CNC(C)C)cc1 (stereo not drawn) [Metoprolol]
RDW; 100 mg/day, n=35, from 15.6
  RDW: 15.45

## C=C1CC[C@H](O)C/C1=C/C=C1\CCC[C@]2(C)[C@@H]([C@H](C)/C=C/[C@H](C)C(C)C)CC[C@@H]12 [vitamin D-2]
P. falciparum; higher levels
  growth of P. falciparum in culture: inhibitory

## Human growth hormone: Human growth hormone, cited as raising Lp(a)
Lp(a)
  increase of Lp(a): up to 120%

## C=C1/C(=C\C=C2/CCC[C@]3(C)[C@@H]([C@H](C)CCCC(C)C)CC[C@@H]23)C[C@@H](O)C[C@@H]1O [1-hydroxy Vitamin D-3]
P. falciparum; low doses
  growth of P. falciparum in culture: inhibitory

## C=C1CC[C@H](O)C/C1=C/C=C1\CCC[C@]2(C)[C@@H]([C@H](C)CCCC(C)C)CC[C@@H]12 [vitamin D-3]
P. falciparum; higher levels
  growth of P. falciparum in culture: inhibitory

## C=C1CC[C@H](O)C/C1=C/C=C1\CCC[C@]2(C)[C@@H]([C@H](C)CCCC(C)(C)O)CC[C@@H]12 [25-hydroxy vitamin D3]
P. falciparum; low doses
  growth of P. falciparum in culture: inhibitory

## OC(CNCC(O)C1CCc2cc(F)ccc2O1)C1CCc2cc(F)ccc2O1 (stereo not drawn) [Nebivolol]
RDW; 5 mg/d, n=37, from 15.8
  RDW: 15
